Assay results taken from PMC8305873, “Design and heterologous expression of a novel dimeric LL37 variant in Pichia pastoris” (Microbial Cell Factories, 2021).

Assays:
S. faecalis ATCC 29212 = format: cell-based, Streptococcus faecalis; conditions: Table 3, recombinant vs synthetic LG; mean ± SD of three independent experiments
Protocol: (§1) All experiments were conducted at least three different times.

E. coli ATCC 25922 [1] = format: cell-based, Escherichia coli
Protocol: as §1
The salt ions were added to the BSA solution and configured into different final concentrations of salt ions (150 mM NaCl, 4.5 mM KCl, 6 µM NH4Cl, 8 µM ZnCl2, 1 mM MgCl2, 2 mM CaCl2, and 4 µM FeCl3) solutions. The method discribed as above was referred to determine the MIC value of rLG against E. coli ATCC 25922 in the presence of different concentrations of salt ions.

E. coli ATCC 25922 [2] = experiment: Transmission electron microscopy (TEM); format: cell-based, Escherichia coli; conditions: 1/2 × MIC (1 μM), 37 °C 1 h
Protocol: E. coli ATCC 25922 was cultured to the logarithmic growth phase and centrifuged to obtain the bacteria. The bacteria were resuspended twice in 0.01 M PBS (pH 7.4) and diluted to OD600 = 0.3. The rLG and bacteria were mixed to a final concentration of 1/2 × MIC (1 μM), and the bacteria without peptide were used as a control. Both samples were incubated at 37 °C for 1 h. The incubated sample was centrifuged at 2500×g for 5 min and washed three times with 0.01 M PBS. Two milliliters of 2.5% glutaraldehyde buffer was added to the bacterial pellet, and the suspension was gently blown and fixed at 4 °C overnight. The cells were washed with 0.01 M PBS and fixed in 1% osmate buffer for 1 h. Then, different concentrations of ethanol were used for gradient dehydration (50%, 70%, 85%, 95% and 100%). Finally, the sample was prepared into ultrathin sections through the process of soaking and embedding, and a Hitachi H-7650 TEM (Hitachi, Japan) was used for observation.

S. Typhimurium C 7731 = format: cell-based, Salmonella Typhimurium; conditions: Table 3, recombinant vs synthetic LG; mean ± SD of three independent experiments
Protocol: as §1

[3] = system: S. Typhimurium ATCC 14028; format: cell-based, Salmonella Typhimurium; conditions: Table 3, recombinant vs synthetic LG; mean ± SD of three independent experiments
Protocol: as §1

E. coli ATCC 25922 [4] = experiment: Cytoplasmic membrane depolarization, DiSC3-5; format: cell-based, Escherichia coli
Protocol: DiSC3-5 was used to measure the change in plasma membrane potential after peptide treatment. E. coli ATCC 25922 (OD600 = 0.05) was incubated with 0.4 µM DiSC3-5 and 100 mM K^+ in 5 mM HEPES buffer (containing 20 mM glucose, pH 7.4) until the fluorescence decreased stably. […] A fluorescence spectrophotometer (Infinite 200 pro, Tecan, China) was used to record the fluorescence values at an excitation light wavelength of 622 nm and emission light wavelength of 670 nm.

S. aureus ATCC 29213 = format: cell-based, Staphylococcus aureus; conditions: Table 3, recombinant vs synthetic LG; mean ± SD of three independent experiments
Protocol: as §1

S. aureus ATCC 25923 = format: cell-based, Staphylococcus aureus; conditions: Table 3, recombinant vs synthetic LG; mean ± SD of three independent experiments
Protocol: as §1

E. coli ATCC 078 = format: cell-based, Escherichia coli; conditions: Table 3, recombinant vs synthetic LG; mean ± SD of three independent experiments
Protocol: as §1

E. coli ATCC 25922 [5] = format: cell-based, Escherichia coli; conditions: Table 3, recombinant vs synthetic LG; mean ± SD of three independent experiments
Protocol: as §1

[6] = system: S. epidermidis ATCC 12228; format: cell-based, Staphylococcus epidermidis; conditions: Table 3, recombinant vs synthetic LG; mean ± SD of three independent experiments
Protocol: as §1

P. aeruginosa ATCC 27853 = format: cell-based, Pseudomonas aeruginosa; conditions: Table 3, recombinant vs synthetic LG; mean ± SD of three independent experiments
Protocol: as §1

E. coli ATCC 25922 [7] = experiment: Cell wall (outer membrane) permeabilization, NPN uptake; format: cell-based, Escherichia coli; conditions: at low concentrations (1, 2, and 4 µM); compared with melittin
Protocol: The cell wall permeability was determined by monitoring the fluorescence release of the fluorescent dye NPN (Sigma, USA). E. coli ATCC 25922 (OD600 = 0.2) and NPN (10 µM) were incubated in 5 mM HEPES buffer (containing 5 mM glucose, pH 7.4) for 30 min. Then, 100 µL of peptides (0.5–32 µM) and an equal volume of bacteria were added to a 96-well plate. An F-4500 fluorescence spectrophotometer (Hitachi, Japan) was used to detect the fluorescence intensity of different wells at a 350 nm excitation wavelength and 420 nm emission wavelength. The peptide-free and polymyxin B-containing fluorescence values were set as negative and positive controls.

E. coli ATCC 25922 [8] = format: cell-based, Escherichia coli; conditions: in the absence of physiological salts and serum
human red blood cells = experiment: Hemolytic activity assay; format: cell-based; conditions: at the highest peptide concentration (128 μM); human red blood cells, 37 °C 1 h; 0.1% Triton X-100 = 100%
Protocol: The collected blood of type B from healthy donor was centrifuged at 1000×g for 5 min to collect red blood cells. The red blood cells were then washed and resuspended in 10 mM PBS (pH 7.4). Fifty microliters of diluted red blood cells and an equal volume of peptide solution (2–128 µM) were incubated in a 96-well plate at 37 °C for 1 h. The red blood cell suspension treated with 0.1% Triton X-100 was used as a positive control (100% hemolysis), and untreated blood cell suspension was used as a negative control. The 96-well plate was centrifuged at 1000×g for 5 min at 4 °C, and then the supernatant was transferred to a new 96-well plate. The absorbance at OD570 was measured with a microplate reader.

Sequence: FKRIVQRIKRFLRGGGGSFKRIVQRIKRFLR [rLG, recombinant LG expressed in P. pastoris as 6 × His-SUMO-LG and released by SUMO protease]
- MIC (S. faecalis ATCC 29212): 1.89 ± 0.11 µM
- MIC under physiological salt concentration, FeCl3 (E. coli ATCC 25922 [1]; 4 µM FeCl3): 2 µM
- MIC under physiological salt concentration, NH4Cl (E. coli ATCC 25922 [1]; 6 µM NH4Cl): 2 µM
- MIC under physiological salt concentration, ZnCl2 (E. coli ATCC 25922 [1]; 8 µM ZnCl2): 2 µM
- MIC under physiological salt concentration, MgCl2 (E. coli ATCC 25922 [1]; 1 mM MgCl2): 4 µM
- MIC under physiological salt concentration, CaCl2 (E. coli ATCC 25922 [1]; 2 mM CaCl2): > 32 µM
- MIC under physiological salt concentration, KCl (E. coli ATCC 25922 [1]; 4.5 mM KCl): 2 µM
- MIC under physiological salt concentration, NaCl (E. coli ATCC 25922 [1]; 150 mM NaCl): 2 µM
- MIC under physiological salt concentration, GM (E. coli ATCC 25922 [1]; geometric mean of the MIC values in the seven salt solutions): 3.62 µM
- MIC under physiological salt concentration, Fold (E. coli ATCC 25922 [1]; increase of the MIC value (GM in salts) over the control without salts): 1.81
- internal morphology by TEM (E. coli ATCC 25922 [2]): the membrane of E. coli was destroyed, and the cell contents flowed out
- MIC (S. Typhimurium C 7731): 1.33 ± 0.25 µM
- MIC [3]: 3.78 ± 0.44 µM
- plasma membrane potential (DiSC3-5 fluorescence intensity) (E. coli ATCC 25922 [4]; lowest tested concentration (1 µM)): caused a rapid increase in fluorescence intensity
- damage to plasma membrane potential compared with melittin (DiSC3-5) (E. coli ATCC 25922 [4]; rLG compared with 16 µM melittin): stronger than that of 16 µM melittin
- MIC (S. aureus ATCC 29213): 2.00 ± 0.00 µM
- MIC (S. aureus ATCC 25923): 4.44 ± 1.78 µM
- MIC (E. coli ATCC 078): 1.22 ± 0.19 µM
- MIC (E. coli ATCC 25922 [5]): 1.77 ± 0.19 µM
- MIC [6]: 1.89 ± 0.11 µM
- MIC (P. aeruginosa ATCC 27853): 4.44 ± 1.78 µM
- ability to damage or destroy the bacterial cell wall (NPN fluorescence) (E. coli ATCC 25922 [7]): better than that of melittin
- MIC, Control (E. coli ATCC 25922 [8]): 2 µM
- hemolysis (blood cells destroyed) (human red blood cells): approximately 23%
